# Data as given in US11273218B2, “Methods for treating Angelman syndrome and related disorders” (Cavion, Inc., priority 2015, dated 2022).
# Read-outs that look alike come from different tables or passages of the source.
# How the values were obtained:
# UBE3/129sv mice = test: Audiogenic-induced epilepsy test (Test 1) in Angelman syndrome mouse model; type: in vivo; conditions: oral gavage for 7 days, AS mice
# Protocol: Three separate tests were performed to determine effects of two compounds, mibefradil and MK-8998 on behavioral and physiological deficits and epilepsy in a mouse model for Angelman syndrome. The tests included: audiogenic-induced epilepsy test (Test 1, T1), a battery of motor/behavioral tests (Test 2, T2) and long-term potentiation measurements (LTP, Test 3, T3). Completion of each test provided a quantitative result of mibefradil or MK-8998 effect on this test. For all three tests, 2 separate groups of mice were generated: group 1 for test 1 and group 2 for tests 2 and 3, as shown below in see Table 2 and each group consists of 6 subgroups, a-f.
# For all behavioral and electrophysiology experiments female Ube3am^−/p^+KO mice (i.e., AS mice) were crossed with wild-type males, to generate heterozygous AS mice and littermate controls in the F1 hybrid 12952-C57BL/6 background. For epilepsy tests, AS mice are crossed with controls in the 12952/SvPasCrl background. In total, 2 groups of mice are required: group 1 for the epilepsy test (Table 2, group 1a-f) and group 2 for the behavioral test battery and electrophysiology (Table 2, group 2a-f). […] The number of mice used per test/subgroup is indicated in Table 2 and ranges from 5-7 mice/subgroup for electrophysiology, 10 mice/subgroup for epilepsy test, and 12 to 15 mice/subgroup for behavioral test battery. […]
# CaMKIIα = conditions: striatum, cited from earlier work
structure (smiles),measurement,setting,value
CC(C)c1ccc(CC(=O)N[C@H](C)c2ccc(OCC(F)(F)F)cn2)cc1 [MK-8998],treated animals with seizures eliminated completely,"UBE3/129sv mice; 60 mg/kg, audiogenic-induced seizures",about 80%
same,effect on audiogenic-induced seizures (in words),"UBE3/129sv mice; 10, 30, 60 mg/kg",eliminated seizures in a dose-dependent manner
[Cl][Ni][Cl] [NiCl2],decrease of threonine autophosphorylation of CaMKIIα,CaMKIIα; 100 μM,35%
COCC(=O)O[C@]1(CCN(C)CCCc2nc3ccccc3[nH]2)CCc2cc(F)ccc2[C@@H]1C(C)C [mibefradil],decrease of threonine autophosphorylation of CaMKIIα,CaMKIIα; 5 μM,37%
